Measurements: patent EP0300806A1, “Opioid analgesic liposomal delivery-release system” (VESTAR, INC., priority 1987, dated 1989)
Structures can show the parent of a compound that is named as a salt.

Legend:
[1] = tested on: phenylquinone-induced writhing; test: phenylquinone-induced writhing assay, analgesia after i.m. injection; format: in vivo, Mice
Experimental: Duration of analgesia was evaluated using the phenylquinone-induced writhing assay essentially as described by Pircio et al. R.W. Pircio, J.A. Gylys, R.L. Cavanagh, J.P. Buyniski and M.E. Bierwagen, 220 Archives Internationales de Pharmacodynamie et de Therapie, 231-57 (1976). Mice were given intraperitoneal injections of 0.025% (w/v) phenyl-p-quinone in 5% ethanol (2.5 mg/kg). […] The writhing phenomenon has been described by Siegmund et al. E. Siegmund, R. Cadmus, G. Lu, 95 Proceedings of the Society for Experimental Biology and Medicine, 729-31 (1957). Five animals per observer was established as a manageable procedure yielding values which were reproducible and consistent from observer to observer. […]
The dose required for single injection ED₅₀ and ED₁₀₀ of free butorphanol tartrate was determined by administering various doses of free drug intramuscularly 15 minutes prior to the i.p. injections of phenylquinone. […] The ED₅₀ and ED₁₀₀ values determined in this study were compared for agreement with reported literature values and used along with control values as a reference standard for each study. […]
Extended analgesia studies were conducted using no fewer than 50 animals per treatment group. […] The times at which analgesic effect was measured were based on the particular treatment and on the results of the previous bioassays for the treatment group.

[2] = tested on: phenylquinone-induced writhing; test: tolerance (tachyphylaxis) studies: shift of ED50 of free butorphanol tartrate in the writhing assay after pretreatment; format: in vivo, mice

## Oc1ccc2c(c1)C13CCCCC1(O)C(C2)N(CC1CCC1)CC3 (stereo not drawn) [free butorphanol tartrate, butorphanol tartrate]
[1]; 2 ug, 50 ug and 500 ug dose curves, Fig. 1
  effect of higher doses on duration of analgesia: do not provide extended efficacy
[1]; Mus musculus, im, 0.25 h, untreated mice, single i.m. injection of free drug 15 minutes prior to i.p. phenylquinone, read-out: ED₅₀
  ED50: 0.05 mg/kg
[2]; 5 injections of 100 ug/kg at 3 hr. intervals, second protocol, Fig. 6
  36 hr. ED₅₀: suggestive of recovery from tachyphylaxis
[2]; Mus musculus, im, after four i.m. injections of 50 ul saline at 3 hr. intervals, determined 13 hrs. after start, read-out: ED₅₀ for free butorphanol tartrate after multiple injections of saline
  ED50: ~0.125 mg/kg
[2]; after 4 injections of the ED₁₀₀ dose at 3 hr. intervals, first protocol, Fig. 2
  increase in ED₅₀ values between no treatment animals and multiple injection animals: 4-5 fold
[2]; pretreatment with 4 injections of 100 ug/kg, Fig. 4 bottom panel
  shift of ED₅₀ relative to its initial value: approximately 4 times its initial value
